# Measurements reported in patent US20040068002A1, “4-aminobenzopyran derivatives” (priority 2001, published 2004).
# Legend:
# [1] = test system: ventricular effective refractory period; experiment: Effects on the effective refractory period (ventricular), anesthetized beagles with vagal nerve stimulation; format: in vivo; settings: 0.3 mg/kg intravenously, from 5 min after administration, after minus before administration
# Protocol: (§1) Effects on the Effective Refractory Period
# (§2) Beagles were anesthetized with pentobarbital sodium and, under artificially ventilated condition, thoracotomy was conducted along the median and the pericardium was cut open to expose the heart. ECG was recorded using bipolar electrodes attached to the surface of the right atrial free wall, right atrial auricle, and right ventricular free wall. The vagal nerves were stimulated using an electric stimulation device via Nichrome wires inserted into the bilateral vagal nerves in the neck. The conditions for electric stimulation to the vagal nerves were set such that the RR intervals on ECG were prolonged by about 100 msec compared with those before the stimulation was started.
# (§3) Electric current twice as strong as the threshold was used for the electric stimulation to the heart, and premature stimulation S2 was applied after giving 10 serial S1 stimulations at the basic stimulation cyclelength. […]
# (§4) For evaluation of drug effects, the atrial and ventricular effective refractory periods were determined before drug administration, then each compound was administrated intravenously at the dose of 0.3 mg/kg, and the atrial and ventricular effective refractory periods were determined from 5 min after the administration. […]
# [2] = test system: atrial effective refractory period; experiment: Effects on the effective refractory period (atrial), anesthetized beagles with vagal nerve stimulation; format: in vivo; settings: 0.3 mg/kg intravenously, from 5 min after administration, after minus before administration
# Protocol: as §1, §2, §3, §4
Structure (SMILES),prolongation time in effective refractory period (msec) ventricle [1] [ms],prolongation time in effective refractory period (msec) Atrium [2] [ms]
"CCCCCN[C@H]1c2cc(N)c([N+](=O)[O-])cc2OC(C)(C)[C@@H]1O (relative stereo) [Synthesis Example 9, Trans-6-amino-3,4-dihydro-2,2-dimethyl-7-nitro-4-n-pentylamino-2H-1-benzopyran-3-ol]",3,27
"CCCCCN[C@H]1c2cc(NC(C)=O)c([N+](=O)[O-])cc2OC(C)(C)[C@@H]1O (relative stereo) [Synthesis Example 1, (3R*,4S*)-6-acetylamino-3,4-dihydro-2,2-dimethyl-7-nitro-4-n-pentylamino-2H-1-benzopyran-3-ol]",5,40
